Test results from PMC7037232, “Effect of Cholesterol on the Organic Cation Transporter OCTN1 (SLC22A4)” (International Journal of Molecular Sciences, 2020).
Several values for one entry are separate records, joined by “and”; a condition that tells them apart may be missing. Equal entries are not always repeated. Values belong to the molecule of their own block, whether it stands above or below them.

Columns and labels:
[1] = molecular target: T1, recombinant OCTN1 (Homo sapiens, UniProt Q9H015); test: [14C]-TEA uptake in proteoliposomes reconstituted with recombinant OCTN1 over-expressed in E. coli; format: biochemical; details: for IC50: [14C]-TEA uptake 0.1 mM, 20 min
T1 construct: made in house; host or cells: E. coli
T1 sequence (Q9H015 1-551): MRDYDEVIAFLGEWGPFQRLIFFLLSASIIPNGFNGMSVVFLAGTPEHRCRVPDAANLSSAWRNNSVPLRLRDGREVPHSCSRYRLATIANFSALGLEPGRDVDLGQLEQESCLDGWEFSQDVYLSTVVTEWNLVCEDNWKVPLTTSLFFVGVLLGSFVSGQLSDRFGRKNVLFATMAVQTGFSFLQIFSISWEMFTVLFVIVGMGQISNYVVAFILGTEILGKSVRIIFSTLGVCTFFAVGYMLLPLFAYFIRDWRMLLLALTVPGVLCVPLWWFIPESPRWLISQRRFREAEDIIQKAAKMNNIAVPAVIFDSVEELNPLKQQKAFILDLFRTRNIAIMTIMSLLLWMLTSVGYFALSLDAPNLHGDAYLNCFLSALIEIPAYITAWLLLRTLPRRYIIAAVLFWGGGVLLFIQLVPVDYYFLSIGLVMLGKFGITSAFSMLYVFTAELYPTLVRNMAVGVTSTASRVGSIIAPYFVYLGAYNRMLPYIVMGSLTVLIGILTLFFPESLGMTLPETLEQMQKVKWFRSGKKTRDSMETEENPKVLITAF
Method: (§1) OCTN1 over-expressed in E. coli and purified as previously described was used for reconstitution in liposomes. The composition of the initial mixture used for reconstitution (except when differently indicated) was 200 µL of the purified protein (5 µg protein in 0.05% DDM), CHS at the indicated concentrations solubilized in 240 µL of 20 mM Tris/HCl (pH 7.5) and 5% Triton X-100 or buffer and Triton X-100 alone in the case of samples without CHS, 120 µL of 10% egg yolk phospholipids in the form of sonicated liposomes prepared as previously described, 16 mM ATP and (where indicated) in a final volume of 700 μL. The purified OCTN1 inserted in liposomal membrane by removing the detergent from mixed micelles containing detergent, protein, and phospholipids with Amberlite XAD-4 in a batch-wise procedure. Where indicated, proteoliposome internal volume was measured using a colorimetric phosphate method. In detail, 30 mM dipotassium phosphate (K2HPO4) was added to the reconstitution mixture. After elution from Sephadex G75 pre-equilibrated with 5 mM Tris/HCl (pH 7.5), 100 µL of sample were used for the colorimetric reaction. A solution containing 150 µL of 10% SDS was used to solubilize liposomal membranes. Then, 700 µL of a solution prepared with 10 mM hexammonium heptamolybdate 4-hydrate, 0.3 mM H2SO4 and 0.1 mM FeSO4 was added starting an incubation of 30 min in the dark. At the end, absorbance from each sample was measured at 578 nm. Internal volume in µL was derived from nmol of phosphate incorporated in liposomes.
(§2) Proteoliposomes reconstituted with the recombinant OCTN1 and added or not with CHS were incubated with MβCD as above described and then, MβCD was removed by chromatography on Sephadex G-75 column as described in Section 4.7.
(§3) Proteoliposomes (550 µL) were passed through a Sephadex G-75 column (0.7 cm diameter x 15 cm height) pre-equilibrated with 5 mM Tris/HCl (pH 7.5). The first 550 µL turbid eluate was collected and divided in aliquots (samples) of 100 µL each. Transport was started by adding 0.1 mM [^14C]-TEA or [^3H]-acetylcholine to the proteoliposome samples and stopped by adding 0.5 mM HgCl2 at the desired time interval. In control samples, the inhibitor was added at time zero according to the inhibitor stop method. Finally, each sample of proteoliposomes (100 µL) was passed through a Sephadex G-75 column (0.6 cm diameter × 8 cm height) in order to separate the external from the internal radioactivity. Liposomes were eluted with 1 mL of 50 mM NaCl and collected in 4ml of scintillation mixture, vortexed, and counted. The experimental values were corrected by subtracting the respective controls. The uptake time course data were interpolated using a first order rate equation from which rate constants were derived as the product of k (the first order rate constant) and the transport at the equilibrium. Data from dose-response experiments were fitted into an IC50 equation. For kinetic experiments the initial rate of transport expressed as nmol ⋅ min^−1 ⋅ mg protein^−1, was measured by stopping the reaction after 10 min, i.e., within the initial linear range of [^14C]-TEA or [^3H]-acetylcholine uptake into the proteoliposomes. Kinetic constants were estimated from interpolation of the experimental data into a Lineweaver–Burk equation. The Grafit (version 5.0.3) software was used for calculations.

[2] = molecular target: T1, recombinant OCTN1; test: [3H]-acetylcholine uptake in proteoliposomes reconstituted with recombinant OCTN1 over-expressed in E. coli; format: biochemical; details: for IC50: [3H]-acetylcholine uptake 0.1 mM, 20 min
Method: as §1, §3

[3] = molecular target: T1, recombinant OCTN1; test: Immunodetection of OCTN1 incorporated in proteoliposomes (anti-His antibody)
[4] = molecular target: T2, native human OCTN1 (Homo sapiens, UniProt Q9H015); test: [14C]-TEA uptake in proteoliposomes reconstituted with native OCTN1 extracted from HeLa cells; format: biochemical; details: 0.1 mM [14C]-TEA
T2 construct: the native human OCTN1, the protein extracted from HeLa cells was exploited; endogenous in cells; host or cells: HeLa cells (Triton X-100 extract reconstituted in proteoliposomes)
T2 sequence (Q9H015 1-551): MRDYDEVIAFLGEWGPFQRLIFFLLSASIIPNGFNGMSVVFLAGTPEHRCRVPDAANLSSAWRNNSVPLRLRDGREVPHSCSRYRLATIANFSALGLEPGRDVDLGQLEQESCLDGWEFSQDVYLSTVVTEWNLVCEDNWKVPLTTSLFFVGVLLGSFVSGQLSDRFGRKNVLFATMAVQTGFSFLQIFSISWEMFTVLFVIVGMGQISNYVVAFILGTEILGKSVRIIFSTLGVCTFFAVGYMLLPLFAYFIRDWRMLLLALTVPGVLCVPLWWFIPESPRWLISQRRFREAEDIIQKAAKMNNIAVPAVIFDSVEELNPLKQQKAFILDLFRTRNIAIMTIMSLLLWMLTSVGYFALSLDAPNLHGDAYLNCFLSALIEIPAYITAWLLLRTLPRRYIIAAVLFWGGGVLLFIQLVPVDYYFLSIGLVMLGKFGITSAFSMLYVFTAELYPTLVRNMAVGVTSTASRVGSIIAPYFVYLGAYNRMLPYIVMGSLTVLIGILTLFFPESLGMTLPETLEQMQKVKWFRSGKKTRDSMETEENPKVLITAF
Method: HeLa cells pellet was treated with 150 µL TX-100 10%. After vortexing cells have been incubated 30 min on ice and then centrifuged 10 min 12.000× g at 4 °C. The cell membrane extract (supernatant) was used for the reconstitution. 30 µL supernatant were included to the reconstitution mixture containing 120 µL 10% egg yolk phospholipids in the form of sonicated liposomes prepared as previously described, 80 µL 10% Triton X-100 solution, 16 mM ATP, 7 µL of 500 mM Tris/HCl (pH 7.5) in a final volume of 700 μL.
Each HeLa cell sample or HeLa cell extract was incubated with 10 mM MβCD for 90 min at 37 °C under stirring. Then, the respective extracts were reconstituted in proteoliposomes.
Proteoliposomes (550 µL) were passed through a Sephadex G-75 column (0.7 cm diameter x 15 cm height) pre-equilibrated with 5 mM Tris/HCl (pH 7.5). […] Finally, each sample of proteoliposomes (100 µL) was passed through a Sephadex G-75 column (0.6 cm diameter × 8 cm height) in order to separate the external from the internal radioactivity. Liposomes were eluted with 1 mL of 50 mM NaCl and collected in 4ml of scintillation mixture, vortexed, and counted. […] For kinetic experiments the initial rate of transport expressed as nmol ⋅ min^−1 ⋅ mg protein^−1, was measured by stopping the reaction after 10 min, i.e., within the initial linear range of [^14C]-TEA or [^3H]-acetylcholine uptake into the proteoliposomes. […]

[5] = Enzymatic quantitation of cholesterol/CHS in proteoliposome lipids; details: proteoliposomes with initial 8.3% CHS, 10 mM MβCD
Method: as §2
Quantitation was performed using the Cholesterol Quantitation Kit MAK043 by Merck Life Science s.r.l., 20149 Milan, Italy,). Assay was performed in the presence of cholesterol esterase with absorbance measured on a microplate reader at 570 nm.

[6] = substrate: CC(=O)OCC[N+](C)(C)C; test: [3H]-acetylcholine uptake in proteoliposomes reconstituted with recombinant OCTN1 over-expressed in E. coli; format: biochemical, human; details: other: in the absence of CHS; pH 7.5
Method: OCTN1 over-expressed in E. coli and purified as previously described was used for reconstitution in liposomes. The composition of the initial mixture used for reconstitution (except when differently indicated) was 200 µL of the purified protein (5 µg protein in 0.05% DDM), CHS at the indicated concentrations solubilized in 240 µL of 20 mM Tris/HCl (pH 7.5) and 5% Triton X-100 or buffer and Triton X-100 alone in the case of samples without CHS, 120 µL of 10% egg yolk phospholipids in the form of sonicated liposomes prepared as previously described, 16 mM ATP and (where indicated) in a final volume of 700 μL. […] Where indicated, proteoliposome internal volume was measured using a colorimetric phosphate method. […] At the end, absorbance from each sample was measured at 578 nm. […]
Proteoliposomes (550 µL) were passed through a Sephadex G-75 column (0.7 cm diameter x 15 cm height) pre-equilibrated with 5 mM Tris/HCl (pH 7.5). […] Finally, each sample of proteoliposomes (100 µL) was passed through a Sephadex G-75 column (0.6 cm diameter × 8 cm height) in order to separate the external from the internal radioactivity. Liposomes were eluted with 1 mL of 50 mM NaCl and collected in 4ml of scintillation mixture, vortexed, and counted. […]

Molecule: CC(C)CCC[C@@H](C)[C@H]1CC[C@H]2[C@@H]3CC=C4C[C@@H](OC(=O)CCC(=O)O)CC[C@]4(C)[C@H]3CC[C@]12C [CHS, Cholesteryl HemiSuccinate]
- transport of TEA relative to control (without added cholesterol) ([1]; 8.3% CHS (83 µg CHS/mg total lipids), 0.1 mM [14C]-TEA): about double the control
- CHS amount giving optimal transport activity ([1]; [14C]-tetraethylamonium uptake): 83 µg CHS/ mg total lipids
- transport of acetylcholine relative to control (without added cholesterol) ([2]; 8.3% CHS (83 µg CHS/mg total lipids), 0.1 mM [3H]-acetylcholine): about double the control
- CHS amount giving optimal transport activity ([2]; [3H]-acetylcholine uptake): 83 µg CHS/ mg total lipids
- relative concentration of immuno-stained OCTN1, normalized to 0% CHS (100%) ([3]; 2.1% CHS): 109 ± 14%
- relative concentration of immuno-stained OCTN1, normalized to 0% CHS (100%) ([3]; 4.2% CHS): 104 ± 5.8%
- relative concentration of immuno-stained OCTN1, normalized to 0% CHS (100%) ([3]; 8.3% CHS): 106 ± 9.1%

- IC50 ([1]; in the presence of 8.3% CHS): 1700 ± 500 µM
- IC50 ([2]; in the presence of 8.3% CHS): 2200 ± 200 µM
Molecule: [Na+] [Na^+]

Molecule: CC[N+](CC)(CC)CC [TEA, Tetraethylammonium]
- Km [1]: 900 µM and 800 µM
- Vmax of transport [1]: 36.1 ± 8.6 nmol ⋅ min^−1 ⋅ mg protein^−1 and 66.6 ± 16.4 nmol ⋅ min^−1 ⋅ mg protein^−1

Molecule: C[N+]1(C)CCOC(O)(c2ccc(-c3ccc(C4(O)C[N+](C)(C)CCO4)cc3)cc2)C1 (stereo not shown) [hemicholinium]
- IC50 ([2]; in the absence of CHS): 530 ± 46 µM
- IC50 ([2]; in the presence of 8.3% CHS): 300 ± 52 µM

- effect of intraliposomal ATP on transport ([1]; TEA uptake, 8.3% CHS): stimulated the transport
- effect of intraliposomal ATP on transport ([2]; acetylcholine uptake, 8.3% CHS): stimulated the transport
Molecule: Nc1ncnc2c1ncn2[C@@H]1O[C@H](COP(=O)(O)OP(=O)(O)OP(=O)(O)O)[C@@H](O)[C@H]1O [ATP]

Molecule: [Cl][Hg][Cl] [HgCl2]
- IC50 ([1]; in the absence of CHS): 270 ± 50 µM
- IC50 ([1]; in the presence of 8.3% CHS): 200 ± 30 µM

- IC50 ([1]; in the absence of CHS): 1600 ± 300 µM
- IC50 ([1]; in the presence of 8.3% CHS): 1900 ± 700 µM
Molecule: CC[N+](CC)(CC)Cc1ccccc1 [TEBA, Benzyltriethylammonium]

- decrease of the native OCTN1 activity with respect to the control ([4]; HeLa cell extract incubated with 10 mM MβCD prior to reconstitution): 35%
- decrease of the native OCTN1 activity with respect to the control ([4]; HeLa cells incubated with 10 mM MβCD prior to solubilization): 23%
- decrease in transport activity ([1]; proteoliposomes with 8.3% CHS incubated with 10 mM MβCD, 0.1 mM [14C]-TEA): 31%
Molecule: Methyl-beta-CycloDextrin [MβCD]
- reduction of the initial CHS concentration [5]: 40%

B1: human recombinant OCTN1 (Homo sapiens) (protein)
chain: MRDYDEVIAFLGEWGPFQRLIFFLLSASIIPNGFNGMSVVFLAGTPEHRCRVPDAANLSSAWRNNSVPLRLRDGREVPHSCSRYRLATIANFSALGLEPGRDVDLGQLEQESCLDGWEFSQDVYLSTVVTEWNLVCEDNWKVPLTTSLFFVGVLLGSFVSGQLSDRFGRKNVLFATMAVQTGFSFLQIFSISWEMFTVLFVIVGMGQISNYVVAFILGTEILGKSVRIIFSTLGVCTFFAVGYMLLPLFAYFIRDWRMLLLALTVPGVLCVPLWWFIPESPRWLISQRRFREAEDIIQKAAKMNNIAVPAVIFDSVEELNPLKQQKAFILDLFRTRNIAIMTIMSLLLWMLTSVGYFALSLDAPNLHGDAYLNCFLSALIEIPAYITAWLLLRTLPRRYIIAAVLFWGGGVLLFIQLVPVDYYFLSIGLVMLGKFGITSAFSMLYVFTAELYPTLVRNMAVGVTSTASRVGSIIAPYFVYLGAYNRMLPYIVMGSLTVLIGILTLFFPESLGMTLPETLEQMQKVKWFRSGKKTRDSMETEENPKVLITAF
notes: made in house; host or cells: E. coli
- Km [6]: 1100 ± 370 µM
- Vmax [6]: 49.3 ± 12.4 nmol ⋅ min^−1 ⋅ mg protein^−1
